Results published in US20110224151A1, “Polymeric Micelle Composition for Treatment of Resistant Cancer and Preparation Method of the Same” (SAMYANG CORPORATION, priority 2008, published 2011).
In brackets after ≈: the same amount, converted by molar mass.

Tested on: DLD-1 colon cancer cells
Experiment: Inhibition of P-glycoprotein: paclitaxel cytotoxicity with and without cyclosporin
Format: cell-based, human
Conditions: for IC50: Homo sapiens

SMILES: CC(=O)O[C@H]1C(=O)[C@@]2(C)[C@H]([C@H](OC(=O)c3ccccc3)[C@]3(O)C[C@H](OC(=O)[C@H](O)[C@@H](NC(=O)c4ccccc4)c4ccccc4)C(C)=C1C3(C)C)[C@]1(OC(C)=O)CO[C@@H]1C[C@@H]2O [paclitaxel]
- decrease of IC50 with cyclosporin as compared to paclitaxel alone (1.88 μg/mL cyclosporin, DLD-1 cells): 15 times
- IC50 (DLD-1, DLD-1 cells treated with 1.88 μg/mL cyclosporin): 0.011 µg/mL
- IC50 (DLD-1, paclitaxel administered alone, DLD-1 cells): 0.16 µg/mL (≈ 0.187 µM)
